This is an account of results in patent US5079376A, “Novel substance UCT-1003 and process for producing the same” (Kyowa Hakko Kogyo, Ltd., priority 1989, dated 1992).

Converted amounts (≈) assume the structure as drawn. Bounds are passed on as bounds.

In general, IC50 refers to the concentration needed to halve the response being measured. A low value points to greater potency.

In series [1] the test system is Staphylococcus aureus ATCC 6538P. Kind of series: Antibacterial activity (MIC), agar dilution method, Staphylococcus aureus. Conditions: ATCC6538P, pH 7, read-out: minimum inhibitory concentration (MIC). Format: cell-based. The protocol:
(§1) The antibacterial activity was determined by the agar dilution method using a medium (pH 7) which comprises 3 g/l Bacto-Tryptone (Difco Laboratories), 3 g/l meat extract, 1 g/l yeast extract, 1 g/l glucose and 16 g/l agar.

Series [2] concerns Enterococcus faecium ATCC 10541. In words: Antibacterial activity (MIC), agar dilution method, Enterococcus faecium. Format: cell-based. Conditions: ATCC10541, pH 7, read-out: minimum inhibitory concentration (MIC). The protocol:
as §1
In general terms: In agar dilution the substance is mixed into plates at graded concentrations.

The test system of series [3] is Bacillus subtilis No. 10707. In words: Antibacterial activity (MIC), agar dilution method, Bacillus subtilis. It is filed as cell-based. The conditions noted are these: pH 7, read-out: minimum inhibitory concentration (MIC). The protocol:
as §1

Series [4] relates to Klebsiella pneumoniae ATCC 10031. Kind of series: Antibacterial activity (MIC), agar dilution method, Klebsiella pneumoniae. It is filed as cell-based. The conditions noted are these: ATCC10031, pH 7, read-out: minimum inhibitory concentration (MIC). The protocol: as §1
The next series deals with Escherichia coli ATCC 26. Kind of series: Antibacterial activity (MIC), agar dilution method, Escherichia coli. It is filed as cell-based. Conditions: ATCC26, pH 7, read-out: minimum inhibitory concentration (MIC). The protocol:
as §1

Series [5] has as its system Shigella sonnei ATCC 9290. In words: Antibacterial activity (MIC), agar dilution method, Shigella sonnei. It is filed as cell-based. Conditions: ATCC9290, pH 7, read-out: minimum inhibitory concentration (MIC). The protocol: as §1
The subject of series [6] is Salmonella typhi ATCC 9992. In words: Antibacterial activity (MIC), agar dilution method, Salmonella typhi. It is filed as cell-based. The conditions noted are these: Salmonella enterica, pH 7, read-out: minimum inhibitory concentration (MIC). The protocol:
as §1

The next series has as its system T24 cells. Kind of series: Anti-tumor activity against T24 cells (growth inhibition, Neutral Red). Conditions: Homo sapiens, T-24, 72 hours, 37° C. It is filed as cell-based. The protocol:
T24 cells were suspended in a medium comprising F10 medium (Gibco Co., Ltd.), 0.1 g/ml fetal calf serum, 100 units/ml penicillin and 100 ug/ml streptomycin (hereinafter referred to as medium A) to a concentration of 2×10^4 cells/ml. The cell suspension thus prepared was put into wells of a 96-well microtiter plate in the amount of 0.1 ml per well. After incubation at 37° C. for 20 hours in a CO2 -incubator, 0.05 ml of a test sample appropriately diluted with medium A was added to each well. The cells were further cultured at 37° C. for 72 hours in the CO2 -incubator and the culture supernatant was removed. To the residue was added a medium comprising medium A and 0.02% Neutral Red in the amount of 0.1 ml per well, followed by culturing at 37° C. for one hour in the CO2 -incubator, whereby the cells were stained. After removal of the culture supernatant, the residue was washed once with physiological saline.
The pigment was extracted with 0.001N hydrochloric acid/30% ethanol and absorbance at 550 nm was measured by using a microplate reader. The concentration of the test compound at which the growth of the cells is inhibited by 50% (IC50) was calculated by comparing the absorbance of untreated cells with those of the cells treated with the test compound at known concentrations.

For a further series, the system named is HeLaS3 cells. In words: Anti-tumor activity against HeLaS3 cells (growth inhibition, Neutral Red). It is filed as cell-based. Conditions: Homo sapiens, HeLa S3, 72 hours.
In series [7] the test system is lymphocytic leukemia P388 tumor. In words: Anti-tumor activity against lymphocytic leukemia P388 tumor. Format: in vivo, CDF1 mice. Conditions: mean survival days vs PBS control. The protocol:
Five male CDF1 mice each having a weight of about 22 g were used for each group as test animals, and 1×10^6 cells of lymphocytic leukemia P388 tumor cells were intraperitoneally implanted into the animals. Phosphate solution saline (PBS) containing UCT-1003 (0.2 ml) was once administered intraperitoneally 24 hours after the implantation of tumor cells. The composition of PBS was 0.8 g/dl NaCl, 0.02 g/dl KCl, […] Na2 HPO4 and 0.02 g/dl KH2 PO4 (pH 7.2). For comparison, 0.2 ml of PBS containing mitomycin C was intraperitoneally administered 24 hours after the implantation of tumor cells. Increased life span determined from mean survival days after the implantation is shown in Table 3 as T/C (T: mean survival days of the test groups, C: mean survival days of the control group which received 0.2 ml of PBS intraperitoneally).

Another series is described as follows: Solubility in solvents. It is filed as physicochemical.

Turning to `O=C1c2cc(O)cc(O)c2C(=O)c2c1cc1cc(O)cc(O)c1c2O` [UCT-1003], the MIC was 2.6 µg/mL (≈ 7.69 µM) in [1]; 2.6 µg/mL (≈ 7.69 µM) in series [2]; 83 µg/mL (≈ 245 µM) in series [3]; more than 100 µg/mL in [4]; more than 100 µg/mL in the series with Escherichia coli ATCC 26; more than 100 µg/mL in [5]. Further, the MIC in series [6] was more than 100 µg/mL. For the same molecule, the IC50 in the series on T24 cells is 0.13 µg/mL (≈ 0.384 µM); in the series on HeLaS3 cells it was 0.35 µg/mL (≈ 1.03 µM). Besides, the “Increased life span (T/C)” value in series [7] (12.5 mg/kg, single i.p. 24 hours after i.p. implantation) is listed as 1.21; in series [7] (25 mg/kg, single i.p. 24 hours after i.p. implantation) it was 1.30; in series [7] (50 mg/kg, single i.p. 24 hours after i.p. implantation), 1.30. Moreover, the Solubility in solvents entry in the series “Solubility in solvents” (chloroform and ethyl acetate) is “soluble”; in the series “Solubility in solvents” (dimethylsulfoxide, pyridine, methanol, ethanol and acetone), “Readily soluble”; in “Solubility in solvents” (water and n-hexane), “sparingly soluble”.
Turning to `CO[C@@]12[C@H](COC(N)=O)C3=C(C(=O)C(C)=C(N)C3=O)N1C[C@@H]1N[C@@H]12` [Mitomycin C, mitomycin C, reference compound], the “Increased life span (T/C)” value in [7] (4 mg/kg, i.p. 24 hours after i.p. implantation) stood at 1.57.
